{
  "source": "patent US20250092353A1",
  "about": "“COMMENSAL FUNGUS AND USES THEREOF” (YEDA RESEARCH AND DEVELOPMENT CO. LTD., priority 2022, published 2025)",
  "key": {"[1]": {"test_system": "C. albicans SC5314 (ENO1-GFP)", "assay": "In vivo competition with C. albicans in Abx-treated SPF mice (co-inoculation, cohousing)", "excerpt": "FIGS. 3A-3M include fluorescent micrographs, graphs, and a scheme, showing K. weizmannii competition with C. albicans in colonized animals. (3A) A representative picture of a far-red fluorescent reporter Kazachstania strain (K. weizmannii ENO1-Mirf). (3B-C) Recoverable fecal K. weizmannii in colonized wild-type animals (without antibiotics) one and six months after single oral K. weizmannii ENO1-Mirf inoculation. (3D) Flow cytometric analysis of C. albicans SC5314 (ENO1-GFP), K. weizmannii (ENO1-Mirf), and mixed cultures used for oral inoculation (3E). […] Quantification (n=3-5 mice per group, 4 independent experiments) (see (3D). (3H) Schematic non-limiting outline of a co-housing experiment. (3I) Representative flow cytometric feces analysis of colonized mice 4 weeks after initial colonization (before cohousing) and 2 weeks after co-housing. (N=4 per group). (3J) Percentages of respective labelled fungi in feces of C. albicans, K. weizmannii colonized animals, before and after co-housing in Abx presence (except for day 48 and 58); antibiotics withdrawal on day 46 of cohousing, n=4 per group, representative of 2 independent experiments. (3K) Flow cytometric analysis of feces of germfree animals 1 week after oral inoculation of single fungi cultures or mixed C. albicans SC5314 (ENO1-GFP)/K. weizmannii (ENO1-Mirf) culture. […]"}, "[2]": {"test_system": "CD4+ T cells in PBMCs", "assay": "Antigen-reactive T cell enrichment (ARTE)", "assay_type": "cell-based, human", "settings": "peripheral blood of healthy individuals, 40 μg/ml fungal lysates", "protocol": "PBMCs were freshly isolated from EDTA blood samples on the day of blood donation by density gradient centrifugation (Biocoll; Biochrom, Berlin, Germany). Antigen-reactive T cell enrichment (ARTE) was performed as follows. Briefly, 2×10e^7 PBMCs were plated in RPMI-1640 medium (GIBCO), supplemented with 5% (v/v) human AB-serum (Sigma Aldrich, Schnelldorf, Germany) at a cell density of 1×10e^7 PBMCs/2 cm^2 in cell culture plates and stimulated with 40 μg/ml fungal lysates for 7 hr in presence of 1 μg/ml CD40 and 1 μg/ml CD28 pure antibody (both Miltenyi Biotec, Bergisch Gladbach, Germany). 1 μg/ml Brefeldin A (Sigma Aldrich) was added for the last 2 hr. Cells were labeled with CD154-Biotin followed by anti-Biotin MicroBeads (CD154 MicroBead Kit; Miltenyi Biotec) and magnetically enriched by two sequential MS columns (Miltenyi Biotec). Surface staining was performed on the first column, followed by fixation, permeabilization (Inside stain Kit, Miltenyi Biotec) and intracellular staining on the second column. […]\nFrequencies of antigen-specific T cells were determined based on the total cell count of CD154+ T cells after enrichment, normalized to the total number of CD4+ T cells applied on the column. […]"}},
  "data": [
    {"substance": "Kazachstania weizmannii [K. weizmannii]", "values": [
      {"measurement": "C. albicans colonization after co-inoculation", "setting": "[1]; Abx-treated mice, 1:1 mixture of K. weizmannii and C. albicans", "value": "Candida colonization was prevented"},
      {"measurement": "displacement of established commensal C. albicans", "setting": "[1]; mice stably colonized with C. albicans (on Abx) cohoused with K. weizmannii-harboring mice", "value": "progressive rapid ousting of C. albicans"},
      {"measurement": "polarization of fungus-reactive T cells", "setting": "[2]", "value": "of the Th1 type"}
    ]}
  ]
}
